Structures are written as SMILES.

What all share (assay type): biochemical
The target of one assay is T1, Recombinant Human MMP-13 (Homo sapiens, UniProt P45452).
T1 construct: purchased R&D systems 511-MM
Nature of the assay: MMP-13 inhibitory activity (MMP-13 specific fluorescent substrate with quencher). To be noted: Recombinant Human MMP-13, fluorescent substrate, 25° C. for 1 h; read-out: IC50 MMP13 (Experimental Example 3). An outline of the steps: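 Recombinant human MMP-13 with test compound, reaction started with quenched fluorogenic peptide 7-MCA-Pro-CHA-Gly-NVal-His-Ala-DPA in Tris-HCl buffer, 1 h at 25 °C, stopped with acetic acid. Fluorescence at Ex 325/Em 405 nm; % inhibition versus enzyme-free and inhibitor-free wells, reported as IC50 (μM).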

Another assay deals with T2, MMP-1 (Homo sapiens, UniProt P03956).
T2 sequence (P03956 100-469): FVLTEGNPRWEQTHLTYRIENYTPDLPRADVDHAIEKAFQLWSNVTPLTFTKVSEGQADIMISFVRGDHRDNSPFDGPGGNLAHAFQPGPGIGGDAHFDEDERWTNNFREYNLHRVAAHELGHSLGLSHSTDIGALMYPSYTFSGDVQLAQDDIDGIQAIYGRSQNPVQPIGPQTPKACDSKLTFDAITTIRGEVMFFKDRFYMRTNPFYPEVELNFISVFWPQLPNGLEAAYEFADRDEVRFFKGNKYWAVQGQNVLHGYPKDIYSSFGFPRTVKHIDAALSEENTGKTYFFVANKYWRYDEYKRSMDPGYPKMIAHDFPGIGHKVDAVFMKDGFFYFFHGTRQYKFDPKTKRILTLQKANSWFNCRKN
Nature of the assay: MMP-1 inhibitory action (Type I collagen Activity Measurement kit, FITC-labeled collagen type I). To be noted: MMP-1 inhibitory action, FITC-labeled collagen type I, 37° C. for 3 hr; read-out: IC50 MMP1 (Experimental Example 2).

A further assay addresses T3, aggrecanase-1 (Homo sapiens, UniProt O75173).
T3 sequence (O75173 213-837): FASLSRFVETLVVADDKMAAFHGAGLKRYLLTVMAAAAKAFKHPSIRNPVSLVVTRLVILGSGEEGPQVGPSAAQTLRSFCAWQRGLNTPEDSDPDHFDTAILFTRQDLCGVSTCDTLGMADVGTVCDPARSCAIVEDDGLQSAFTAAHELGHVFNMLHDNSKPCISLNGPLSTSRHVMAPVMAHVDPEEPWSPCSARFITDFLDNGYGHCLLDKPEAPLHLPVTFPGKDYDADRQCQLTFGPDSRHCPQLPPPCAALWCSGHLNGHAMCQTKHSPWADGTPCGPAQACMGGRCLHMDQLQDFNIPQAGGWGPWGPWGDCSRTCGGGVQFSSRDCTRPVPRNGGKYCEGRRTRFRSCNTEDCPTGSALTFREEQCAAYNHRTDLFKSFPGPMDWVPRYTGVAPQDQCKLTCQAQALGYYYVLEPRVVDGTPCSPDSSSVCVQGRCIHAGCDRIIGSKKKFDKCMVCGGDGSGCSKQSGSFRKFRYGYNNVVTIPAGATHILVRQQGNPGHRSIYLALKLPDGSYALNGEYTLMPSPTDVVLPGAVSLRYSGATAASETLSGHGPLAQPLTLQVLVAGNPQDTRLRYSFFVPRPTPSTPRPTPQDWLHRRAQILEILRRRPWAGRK
Nature of the assay: Aggrecanase-1 inhibitory action (Particle Assay, GAG release from aggrecan-containing polyacrylamide particles). As to conditions: aggrecanase-1 inhibitory action; read-out: IC50 AG1 (Experimental Example 1). In short, it runs like this:
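Enzyme and compound incubated with aggrecan-containing polyacrylamide particles in Tris-HCl buffer at 37° C for 15 h. Released GAG in supernatant measured with 1,9-dimethylmethylene blue at 595 nm against chondroitin sulfate standard; % inhibition from enzyme-free and inhibitor-free wells, reported as TC50 (μM).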

One may read the IC50 as the concentration that inhibits the measured activity by half. For `O=C(CCc1cccc(C2CC2(NS(=O)(=O)c2ccc(-c3ccc(Cl)cc3)s2)C(=O)O)c1)N1CCSCC1` (stereo not drawn) [Example 2-211], the IC50 on Recombinant Human MMP-13 is less than 100 nM; on MMP-1, not below 10000 nM; at aggrecanase-1, less than 100 nM.
Turning to `O=C(O)Cc1cccc(C2CC2(NS(=O)(=O)c2ccc(-c3cc(C(F)(F)F)on3)s2)C(=O)O)c1` (stereo not drawn) [Example 2-212], the IC50 was less than 1000 nM at Recombinant Human MMP-13, not below 1000 nM at MMP-1 and less than 100 nM at aggrecanase-1.
In the case of `O=C(O)C1(NS(=O)(=O)c2ccc(-c3cc(C(F)(F)F)on3)s2)CC1c1cccc(NCc2cccnc2)c1` (stereo not drawn) [Example 2-213], the IC50 was less than 100 nM on Recombinant Human MMP-13, less than 1000 nM at MMP-1 and less than 100 nM at aggrecanase-1.
On to `CN(Cc1cccnc1)c1cccc(C2CC2(NS(=O)(=O)c2ccc(-c3cc(C(F)(F)F)on3)s2)C(=O)O)c1` (stereo not drawn) [Example 2-214], for which the results for the IC50 at Recombinant Human MMP-13, at MMP-1 and at aggrecanase-1 were less than 100 nM, less than 1000 nM and less than 100 nM, respectively.
For the compound `CN(C)C(=O)c1ccccc1C1CC1(NS(=O)(=O)c1ccc(-c2ccc(Cl)cc2)s1)C(=O)O` (stereo not drawn) [Example 2-215], the IC50 on Recombinant Human MMP-13 is less than 1000 nM; at MMP-1 it was not below 10000 nM; at aggrecanase-1, less than 100 nM.
In the case of `CN1CCN(C(=O)c2ccccc2C2CC2(NS(=O)(=O)c2ccc(-c3ccc(Cl)cc3)s2)C(=O)O)CC1` (stereo not drawn) [Example 2-216], the IC50 was less than 1000 nM at Recombinant Human MMP-13, not below 10000 nM on MMP-1 and less than 1000 nM on aggrecanase-1.
On to `CC(C)(C)OC(=O)Nc1ccccc1C1CC1(NS(=O)(=O)c1ccc(-c2ccc(Cl)cc2)s1)C(=O)O` (stereo not drawn) [Example 2-217], for which the IC50 was less than 1000 nM on Recombinant Human MMP-13, not below 10000 nM at MMP-1 and less than 1000 nM on aggrecanase-1.
With `COC(=O)Cc1cccc(C2CC2(NS(=O)(=O)c2ccc(-c3cc(C(F)(F)F)on3)s2)C(=O)O)c1` (stereo not drawn) [Example 2-219], the concentration for half-maximal inhibition (IC50) on Recombinant Human MMP-13 was less than 100 nM; at MMP-1, not below 1000 nM; on aggrecanase-1, less than 1000 nM.
In the case of `O=C(Cc1cccc(C2CC2(NS(=O)(=O)c2ccc(-c3cc(C(F)(F)F)on3)s2)C(=O)O)c1)N1CCOCC1` (stereo not drawn) [Example 2-220], the IC50 was less than 100 nM at Recombinant Human MMP-13, not below 1000 nM at MMP-1 and less than 100 nM on aggrecanase-1.
In the case of `CN1CCN(C(=O)Cc2cccc(C3CC3(NS(=O)(=O)c3ccc(-c4cc(C(F)(F)F)on4)s3)C(=O)O)c2)CC1` (stereo not drawn) [Example 2-221], the IC50 at Recombinant Human MMP-13 was less than 100 nM; at MMP-1 it was not below 1000 nM; at aggrecanase-1, less than 1000 nM.
Take `O=C(Cc1cccc(C2CC2(NS(=O)(=O)c2ccc(-c3cc(C(F)(F)F)on3)s2)C(=O)O)c1)N1CCC(O)CC1` (stereo not drawn) [Example 2-222]: the IC50 at Recombinant Human MMP-13 was less than 100 nM; on MMP-1, not below 1000 nM; on aggrecanase-1 it was less than 100 nM.
As to `CN(C)CCC(=O)Nc1cccc(C2CC2(NS(=O)(=O)c2ccc(-c3ccc(Cl)cc3)s2)C(=O)O)c1` (stereo not drawn) [Example 2-223], the IC50 was less than 1000 nM at Recombinant Human MMP-13, not below 10000 nM on MMP-1 and less than 1000 nM at aggrecanase-1.
As to `O=C(CCc1cccc(C2CC2(NS(=O)(=O)c2ccc(-c3ccc(Cl)cc3)s2)C(=O)O)c1)N1CCC(O)CC1` (stereo not drawn) [Example 2-224], the values for the IC50 at Recombinant Human MMP-13, at MMP-1 and at aggrecanase-1 were less than 100 nM, not below 1000 nM and less than 100 nM, respectively.
Regarding `O=C(O)C1(NS(=O)(=O)c2ccc(-c3ccc(Cl)cc3)s2)CC1c1ccc(OCc2ccccc2)cc1` (stereo not drawn) [Example 2-225], the IC50 on Recombinant Human MMP-13 is less than 1000 nM; at MMP-1 it was not below 10000 nM; at aggrecanase-1 it was not below 1000 nM.
For `O=C(O)C1(NS(=O)(=O)c2ccc(-c3ccc(Cl)cc3)s2)CC1c1ccc(CO)cc1` (stereo not drawn) [Example 2-226], in that order: less than 1000 nM, not below 10000 nM and less than 1000 nM.
For `O=C(O)C1(NS(=O)(=O)c2ccc(-c3ccc(Cl)cc3)s2)CC1(CCCO)c1ccccc1` (stereo not drawn) [Example 2-227], the IC50 is less than 1000 nM on Recombinant Human MMP-13, not below 1000 nM at MMP-1 and less than 100 nM on aggrecanase-1.
For `CN(C)c1cccc(C2CC2(NS(=O)(=O)c2ccc(-c3cc(C(F)(F)F)on3)s2)C(=O)O)c1` (stereo not drawn) [Example 2-228], in that order: less than 1000 nM, not below 1000 nM and less than 1000 nM.

For the origin of these results see patent US20080261994A1, “CYCLOPROPANE COMPOUNDS AND PHARMACEUTICAL USE THEREOF” (Japan Tobacco Inc., priority 2003, published 2008).
